Assay results from patent US11840495B2, “Compositions and methods related to di-substituted bicyclo[2.2.1] heptanamine-containing compounds” (The Broad Institute, Inc., priority 2020, dated 2023).
Counter-ions that a name gives are not always drawn. Like-named read-outs stand apart in the source and are kept apart here.

Columns and labels:
NUCB1 = assay: Automated fixation/staining imaging assay, NUCB1 intensity (Example 3); type: cell-based; details: 48 hour treatment time; for NUCB1 Intensity Avg Emax: in % (unit assumed)
Source text: (§1) Prepared Renal Life Media by adding the supplements provided in the kit, substituting the FBS provided with Tet system approved FBS, and filtering the media (not including provided kit antibiotics). Thawed P6 vial(s) into T175 flasks 2 weeks prior to screening. Cells have to be passaged at least once after thaw before they can be used for screening. Hyperflasks can be used depending on the cell number needed. One confluent T175 flask should give at least 25 million cells. Cells should not be split beyond 1:2-1:4 and should only be trypsinized 1×/week. Cells must be spun down after each typsinization. Flasks must be confluent at time of plating. Flasks were incubated at 37° C., 5% CO2, 98% humidity. Cells can only be cultured for up to 10 passages before a new vial will need to be thawed.
(§2) • Day 1: Cells are plated. • Day 2: Compounds are transferred into assay plates with Echo (24 hours post-seeding) • Day 3: Begin preparing reagents for fixation and staining. • Day 4: Plates are fixed and stained (48 hour treatment time) on automated system and subsequently imaged on Opera Phenix. • Day 5: Data analysis and reporting is performed. Plate Preparation:
(§3) Calculated cell number needed and media volume needed for the run (MAX 20 plates/run). Cells were seeded into Synthemax-coated 384-well Cell Carrier plates at a density of 12,000 cells/well in 40 ul of Renal Life Media/well. Calculated for an extra 2-3 plate volumes to account for volume needed to fill the Combi cassette lines and left dead volume of cell suspension. (20 ul added with Combi after compound addition for total 60 ul assay volume, due to volume constraints of Echo transfer process). Trypsinized cells with 3 ml/T175 flask of TrypLE™ Express Enzyme 1X. Then spun down cells and resuspend in 10 ml media. Counted the cells using Nexcelom Cellometer K2. Prepared a mixture of 20 ul cell suspension/20 ul Cellometer AOPI Stain (#CS2-0106) and then add 20 ul of the 2 fold diluted mixture onto a Cellometer slide. Counted the cells by using the Dual Stain option and following the prompts. Recorded the live cell density, viability, and current passage number and date in notebook. Used the live cell density in calculating how to prepare the cell seeding suspension. Mixed the cell suspension thoroughly but gently. Once Combi cassette cleaned and cell suspension was made, dispensed 40 ul of cell suspension per well into the Synthemax-coated Cell Carrier assay plates. Immediately after seeding, stored the assay plates in the Liconic Incubator on the enclosed system in the 3100 automation lab, spaced plates out every other slot in stackers to maximize air flow.
(§4) Generated Arxspan Run ID to record compound transfer in CBIP. Spun down compound plates and assay plates 2000 RPM 10 sec. Load assay plates into Echo system incubator. Coordinated plate locations and record RUN ID with automation team member. Ran protocol for 100 nl transfer according to designated plate layout/template. When run was completed, added 20 ul of media/well for all assay plates with Combi in hood in Tissue culture room. Returned plates to the incubator in the enclosed system for 48 hour treatment time.
(§5) Heated up solution (100° C. on stir plate) and dissolved Roche Blocking reagent by stirring. The resulting solution was cloudy. Stored at 4° C. and used within one week or froze aliquots at −20° C. Combi 4: 1° Antibody Cocktail: Prepared the day of experiment. Swirled to mix. […] Prepared solution in Corning 250 ml conical flask and covered with tinfoil to protect from light.
(§6) Combi 5: 2° Antibody Cocktail: Prepared the day of experiment. Swirlrf to mix. […] Prepared solution in Corning 250 ml conical flask and covered with tinfoil to protect from light.
(§7) Removed media using BioTek plate washer. (PEKASP62) Moved plates to Combi. Combi 1. Dispensed 40 μl of 4% PFA (Combi on MEDIUM Speed). Incubated plates 20 minutes. Washed two times on BioTek plate washer. (PEK26X2)
(§8) Moved plates to Combi. Combi 2. […]

MUC1-wt = assay: Immunofluorescence imaging of MUC1-wt in P cells (Example 2); type: cell-based; details: for EC50: 48 hr incubation, MUC1-wt; for WT ECMax (%): DMSO = 0, JQ1 (250 nM) = −100% activity
How it was run: (§9)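 P cells were treated for 48 h with 5-dose (35–0.0035 μM) or 10-dose (16–0.0008 μM) series, in duplicate. Fixed cells were immunostained for MUC1-fs, MUC1-wt, GM130 and Hoechst nuclei. Per-cell cytoplasmic intensity was normalized with DMSO as 0% and JQ1 (250 nM) as −100%; cell number was normalized to DMSO.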

MUC1-fs = assay: Immunofluorescence imaging of MUC1-fs in P cells (Example 2); type: cell-based; details: for EC50: 48 hr incubation, MUC1-fs; for ECMax (%): DMSO = 0, JQ1 (250 nM) = −100% activity
How it was run: as §9

FS MUC1 = assay: Automated fixation/staining imaging assay, FS MUC1 spot cytoplasm (Example 3); type: cell-based; details: 48 hour treatment time; for FS MUC1 Spot Cytoplasm Avg Emax: in % (unit assumed)
Source text: as §1, §2, §3, §4, §5, §6, §7, §8

P cells = assay: in vitro cellular potency of TA compounds determined in P cells; type: cell-based
[1] = Test agent stability on storage; type: physicochemical; details: storage 4° C.; refrigerated and room temperature
[2] = 48 hr, DMSO = 0, JQ1 = −100% activity, in %

IC50 (FS MUC1) [nM] | EC50 (MUC1-wt; read-out: WT EC50 (Cytoplasm)) [nM] | EC50 (MUC1-fs; read-out: EC50(Spot)) [nM] | Compound | FS MUC1 Spot Cytoplasm Avg Emax (FS MUC1) | WT ECMax (%) (MUC1-wt; 48 hr) | ECMax (%) (MUC1-fs; 48 hr) | other results
2430 |  |  | CC1(C)[C@H]2CC[C@H](C2)[C@@]1(C)N (racemic) [Compound 242, rac-2,3,3-trimethylbicyclo[2.2.1]heptan-2-amine hydrochloride] | −67.4 |  |  | EC50 (NUCB1): 4930 nM; NUCB1 Intensity Avg Emax (NUCB1): −85.46; EC50 (MUC1-wt; read-out: WT EC50): > 16000 nM; WT EMax (MUC1-wt; [2]): 27.7; EC50 (MUC1-fs; read-out: EC50): 2430 nM; Emax (MUC1-fs; [2]): −67.4
8520 |  |  | CC(C)[C@H]1[C@H]2CC[C@H](C2)[C@@]1(C)N (racemic) [Compound 254] | −69.07 |  |  | 
8250 |  |  | CC(C)[C@H]1[C@H]2CC[C@H](C2)[C@]1(C)N (racemic) [Compound 255] | −67.5 |  |  | 
6450 |  |  | CC(C)[C@@H]1[C@H]2CC[C@H](C2)[C@@]1(C)N (racemic) [Compound 256] | −65.11 |  |  | 
 | 4040 | 40 | CC[C@]1(C)[C@H]2CC[C@H](C2)[C@H]1N (single isomer, unassigned) [Compound 202-P1] |  | ~150 | −77.14 | EC50 (P cells): 26 nM; Stability/expiration date [1]: Stable when refrigerated and at room temperature for few hours
 | > 1800 | 20 | CC[C@@]1(C)[C@@H]2CC[C@@H](C2)[C@@H]1N (single isomer, unassigned) [Compound 202-P2] |  | ~175 | −76 | EC50 (P cells): 14 nM; Stability/expiration date [1]: Stable when refrigerated and at room temperature for few hours
 | 2700 | 50 | CC[C@@]1(C)[C@H]2CC[C@H](C2)[C@H]1N (single isomer, unassigned) [Compound 203-P1] |  | 91.48 | −76.02 | EC50 (P cells): 40 nM; Stability/expiration date [1]: Stable when refrigerated and at room temperature for few hours
 | 2600 | 40 | CC[C@]1(C)[C@@H]2CC[C@@H](C2)[C@@H]1N (single isomer, unassigned) [Compound 203-P2] |  | 95 | −75 | EC50 (P cells): 46 nM; Stability/expiration date [1]: Stable when refrigerated and at room temperature for few hours
240 |  |  | CC(C)[C@H]1[C@H]2CC[C@H](C2)[C@]1(C)N (single isomer, unassigned) [Compound 251] | −72.07 |  |  | 
8580 |  |  | C[C@]1(N)C[C@H]2CC[C@@H]1C2 (single isomer, unassigned) [Compound 253] | −52.28 |  |  | NUCB1 Intensity Avg Emax (NUCB1): −21.51
96.9 |  |  | CC(C)[C@@H]1[C@H]2CC[C@H](C2)[C@@]1(C)N (single isomer, unassigned) [Compound 257] | −74.94 |  |  | 
5870 |  |  | CC(C)[C@@H]1[C@@H]2CC[C@@H](C2)[C@]1(C)N (single isomer, unassigned) [Compound 258] | −67.73 |  |  | EC50 (NUCB1): 9770 nM; NUCB1 Intensity Avg Emax (NUCB1): −89.37
2940 |  |  | CC(C)[C@H]1[C@@H]2CC[C@@H](C2)[C@]1(C)N (single isomer, unassigned) [Compound 259] | −59.03 |  |  | EC50 (NUCB1): 14600 nM; NUCB1 Intensity Avg Emax (NUCB1): −53

Compound | IC50 (FS MUC1) [nM] | EC50 (MUC1-wt; read-out: WT EC50 (Cytoplasm)) [nM] | EC50 (MUC1-fs; read-out: EC50(Spot)) [nM] | FS MUC1 Spot Cytoplasm Avg Emax (FS MUC1) | WT ECMax (%) (MUC1-wt; 48 hr) | ECMax (%) (MUC1-fs; 48 hr) | other results
N[C@]1(c2ccccc2)[C@@H]2CC[C@@H](C2)C12CCCC2 (racemic) [Compound 252] | 7830 |  |  | −86.32 |  |  | EC50 (NUCB1): 11200 nM; NUCB1 Intensity Avg Emax (NUCB1): −72.37
(1R,3S,4S)-spiro[bicyclo[2.2.1]heptane-3,1′-cyclopentan]-2-amine hydrochloride [Compound 209-P1] |  | > 5600 | 40 |  | −210 | −70.66 | 
(1S,3R,4R)-spiro[bicyclo[2.2.1]heptane-3,1′-cyclohexan]-2-amine [Compound 212-P2] |  | 2600 | 10 |  | 183.41 | −68.36 | 
(1S,3R,4R)-spiro[bicyclo[2.2.1]heptane-3,1′-cyclopentan]-2-amine hydrochloride [Compound 209-P2] |  | 2060 | 10 |  | −210 | −64.28 | 
